The source made the active and inactive calls.
What was measured:
Format in all cases: functional, cell-based
[1] = system: Bel-7402; assay: Cytotoxicity in human Bel7402 cells assessed as reduction in cell viability up to 50 uM by MTT assay
[2] = system: HeLa; assay: Cytotoxicity in human HeLa cells assessed as reduction in cell viability up to 50 uM by MTT assay
[3] = system: MCF7; assay: Cytotoxicity in human MCF7 cells assessed as reduction in cell viability up to 50 uM by MTT assay
[4] = system: A549; assay: Cytotoxicity in human A549 cells assessed as reduction in cell viability up to 50 uM by MTT assay
[5] = system: MCF7; assay: Inhibition of cell migration of human MCF7 cells up to 50 uM by wound healing assay

CCCCCC[C@@H](CCCCCCCCCC(=O)O)O[C@@H]1O[C@H](C)[C@H](O)[C@H](O)[C@H]1O[C@@H]1O[C@H](CO)[C@@H](O)[C@H](O[C@@H]2O[C@H](CO[C@@H]3O[C@H](CO)[C@@H](O[C@@H]4O[C@H](CO)[C@@H](O)[C@H](O)[C@H]4O)[C@H](O)[C@H]3O)[C@@H](O)[C@H](O)[C@H]2O)[C@H]1O[C@@H]1O[C@@H](C)[C@H](O)[C@@H](O)[C@H]1O
inactive: Activity [1] | Activity [2] | Activity [3] | Activity [4] | inhibition [5]

CCCCCC[C@@H](CCCCCCCCCC(=O)O)O[C@@H]1O[C@H](C)[C@H](O)[C@H](O)[C@H]1O[C@@H]1O[C@H](CO)[C@@H](O)[C@H](O[C@@H]2O[C@H](CO)[C@@H](O[C@@H]3O[C@H](CO[C@@H]4O[C@H](C)[C@H](O)[C@H](O)[C@H]4O)[C@@H](O)[C@H](O)[C@H]3O)[C@H](O)[C@H]2O)[C@H]1O[C@@H]1O[C@@H](C)[C@H](O)[C@@H](O)[C@H]1O
inactive: Activity [1] | Activity [2] | Activity [3] | Activity [4] | inhibition [5]

CCCCCC[C@@H](CCCCCCCCCC(=O)O)O[C@@H]1O[C@H](C)[C@H](O)[C@H](O)[C@H]1O[C@@H]1O[C@H](CO)[C@@H](O)[C@H](O[C@@H]2O[C@H](CO[C@@H]3O[C@H](CO)[C@@H](O[C@@H]4O[C@H](CO[C@@H]5O[C@H](C)[C@H](O)[C@H](O)[C@H]5O)[C@@H](O)[C@H](O)[C@H]4O)[C@H](O)[C@H]3O)[C@@H](O)[C@H](O)[C@H]2O)[C@H]1O[C@@H]1O[C@@H](C)[C@H](O)[C@@H](O)[C@H]1O
inactive: Activity [1] | Activity [2] | Activity [3] | Activity [4] | inhibition [5]

CCCCC[C@@H](CCCCCCCCCC(=O)O)O[C@@H]1O[C@H](C)[C@H](O)[C@H](O)[C@H]1O[C@@H]1O[C@H](CO)[C@@H](O)[C@H](O[C@@H]2O[C@H](CO)[C@@H](O[C@@H]3O[C@H](CO[C@@H]4O[C@H](C)[C@H](O)[C@H](O)[C@H]4O)[C@@H](O)[C@H](O)[C@H]3O)[C@H](O)[C@H]2O)[C@H]1O[C@@H]1O[C@@H](C)[C@H](O)[C@@H](O)[C@H]1O
inactive: Activity [1] | Activity [2] | Activity [3] | Activity [4] | inhibition [5]

CCCCC[C@@H](CCCCCCCCCC(=O)O)O[C@@H]1O[C@H](C)[C@H](O)[C@H](O)[C@H]1O[C@@H]1O[C@H](CO)[C@@H](O)[C@H](O[C@@H]2O[C@H](CO[C@@H]3O[C@H](CO)[C@@H](O[C@@H]4O[C@H](CO[C@@H]5O[C@H](C)[C@H](O)[C@H](O)[C@H]5O)[C@@H](O)[C@H](O)[C@H]4O)[C@H](O)[C@H]3O)[C@@H](O)[C@H](O)[C@H]2O)[C@H]1O[C@@H]1O[C@@H](C)[C@H](O)[C@@H](O)[C@H]1O
inactive: Activity [1] | Activity [2] | Activity [3] | Activity [4] | inhibition [5]

CCCCC[C@@H](CCCCCCCCCC(=O)O)O[C@@H]1O[C@H](C)[C@H](O)[C@H](O)[C@H]1O[C@@H]1O[C@H](CO)[C@@H](O)[C@H](O[C@@H]2O[C@H](CO[C@@H]3O[C@H](CO)[C@@H](O[C@@H]4O[C@H](CO)[C@@H](O)[C@H](O)[C@H]4O)[C@H](O)[C@H]3O)[C@@H](O)[C@H](O)[C@H]2O)[C@H]1O[C@@H]1O[C@@H](C)[C@H](O)[C@@H](O)[C@H]1O
inactive: Activity [1] | Activity [2] | Activity [3] | Activity [4] | inhibition [5]
